Positions of bridges follow the written chain, without caps; N, C: chain ends. Residues, ends and D or L forms follow the SMILES beside them. Bounds are passed on as bounds.

For experiment [1], the target named is T1, Glucagon-like peptide 1 receptor (Homo sapiens, UniProt P43220). As to the kind of experiment: Displacement of [125I]-GLP (7 to 36 residues) from human GLP1R expressed in CHO cell membranes incubated for 30 mins measured after 10 hrs by scintillation proximity assay. A general note: Loss of bound radioactivity is the signal in a displacement assay; it reports binding, not function.
T1 sequence (P43220 whole entry, the tested form may be a part): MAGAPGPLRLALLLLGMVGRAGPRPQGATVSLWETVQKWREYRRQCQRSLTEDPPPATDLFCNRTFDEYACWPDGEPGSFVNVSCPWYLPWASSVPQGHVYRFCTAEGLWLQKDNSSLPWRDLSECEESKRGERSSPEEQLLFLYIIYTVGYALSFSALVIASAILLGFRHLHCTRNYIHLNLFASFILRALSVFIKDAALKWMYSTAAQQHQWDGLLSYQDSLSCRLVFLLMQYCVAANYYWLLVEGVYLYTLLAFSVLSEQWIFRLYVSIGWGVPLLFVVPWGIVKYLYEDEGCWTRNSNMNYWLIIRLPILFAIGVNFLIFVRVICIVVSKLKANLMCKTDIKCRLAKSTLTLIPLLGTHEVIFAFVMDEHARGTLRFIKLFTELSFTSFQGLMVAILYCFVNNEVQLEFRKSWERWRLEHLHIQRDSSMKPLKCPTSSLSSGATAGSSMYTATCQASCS

Experiment [2] has as its target T1, Glucagon-like peptide 1 receptor. Description: Agonist activity at human GLP1R expressed in CHOK1 cells assessed as induction of beta-galactosidase-tagged beta-arrestin2 recruitment incubated for 90 mins by PathHunter enzyme complementation assay. The format is cell-based. (Activated receptors often draw arrestin, which recruitment assays turn into a signal.)

For experiment [3] the target is unchanged. Description: Agonist activity at human GLP1R expressed in CHO cells assessed as cAMP accumulation incubated for 30 mins by LANCE assay. The experiment is classed as functional, cell-based.

In experiment [1], `CC[C@H](C)[C@H](NC(=O)[C@H](Cc1ccccc1)NC(=O)[C@H](CCC(=O)O)NC(=O)[C@H](CCCCN)NC(=O)[C@H](C)NC(=O)[C@H](C)NC(=O)[C@H](CCC(N)=O)NC(=O)CNC(=O)[C@H](CCC(=O)O)NC(=O)[C@@H]1CC(=O)NCCCC[C@H](NC(=O)[C@H](CC(=O)O)NC(=O)[C@H](CO)NC(=O)[C@@H](NC(=O)[C@H](Cc2ccccc2)NC(=O)[C@@H](NC(=O)CNC(=O)[C@H](CCC(=O)O)NC(=O)[C@H](C)NC(=O)[C@@H](N)Cc2cnc[nH]2)[C@@H](C)O)[C@@H](C)O)C(=O)N[C@@H](CO)C(=O)N[C@@H](CO)C(=O)N[C@@H](Cc2ccc(O)cc2)C(=O)N1)C(=O)N[C@H]1CCCCNC(=O)C[C@@H](C(=O)NCC(=O)N[C@@H](CCCNC(=N)N)C(=O)NCC(N)=O)NC(=O)[C@H](C(C)C)NC(=O)[C@H](CC(C)C)NC(=O)[C@H](Cc2c[nH]c3ccccc23)NC1=O` (H-HAEGTFTSDKSSYDEGQAAKEFIKWLVDGRG-NH2; lactam 10-14, 24-28) displayed an inhibition constant (Ki) of 1.4 nM. Moreover, the EC50 was found to be 12 nM in experiment [2] and 0.021 nM in experiment [3].

Compound `CC[C@H](C)[C@H](NC(=O)[C@H](Cc1ccccc1)NC(=O)[C@H](CCC(=O)O)NC(=O)[C@H](CCCCN)NC(=O)[C@H](C)NC(=O)[C@H](C)NC(=O)[C@H](CCC(N)=O)NC(=O)[C@@H]1CCC(=O)NCCCC[C@H](NC(=O)[C@H](CO)NC(=O)[C@H](Cc2ccc(O)cc2)NC(=O)[C@H](CC(=O)O)NC(=O)[C@H](CO)NC(=O)[C@@H](NC(=O)[C@H](Cc2ccccc2)NC(=O)[C@@H](NC(=O)CNC(=O)[C@H](CCC(=O)O)NC(=O)[C@H](C)NC(=O)[C@@H](N)Cc2cnc[nH]2)[C@@H](C)O)[C@@H](C)O)C(=O)N[C@@H](Cc2ccc(O)cc2)C(=O)N[C@@H](CC(C)C)C(=O)N[C@@H](CCC(=O)O)C(=O)N1)C(=O)N[C@H]1CCCCNC(=O)C[C@@H](C(=O)NCC(=O)N[C@@H](CCCNC(=N)N)C(=O)NCC(N)=O)NC(=O)[C@H](C(C)C)NC(=O)[C@H](CC(C)C)NC(=O)[C@H](Cc2c[nH]c3ccccc23)NC1=O` (H-HAEGTFTSDYSKYLEEQAAKEFIKWLVDGRG-NH2; lactam 12-16, 24-28) showed a Ki in experiment [1] of 0.82 nM. Moreover, the EC50 turned out to be 8.8 nM in experiment [2] and 0.009 nM in experiment [3].

The compound `CC[C@H](C)[C@H](NC(=O)[C@H](Cc1ccccc1)NC(=O)[C@H](CCC(=O)O)NC(=O)[C@H](CCCCN)NC(=O)[C@H](C)NC(=O)[C@H](C)NC(=O)[C@H](CCC(N)=O)NC(=O)[C@@H]1CC(=O)NCCCC[C@H](NC(=O)[C@H](CO)NC(=O)[C@@H](NC(=O)[C@H](CC(=O)O)NC(=O)[C@H](CO)NC(=O)[C@@H](NC(=O)[C@H](Cc2ccccc2)NC(=O)[C@@H](NC(=O)CNC(=O)[C@H](CCC(=O)O)NC(=O)[C@H](C)NC(=O)[C@@H](N)Cc2cnc[nH]2)[C@@H](C)O)[C@@H](C)O)C(C)C)C(=O)N[C@@H](Cc2ccc(O)cc2)C(=O)N[C@@H](CC(C)C)C(=O)N[C@@H](CCC(=O)O)C(=O)N1)C(=O)N[C@H]1CCCCNC(=O)C[C@@H](C(=O)NCC(=O)N[C@@H](CCCNC(=N)N)C(=O)NCC(N)=O)NC(=O)[C@H](C(C)C)NC(=O)[C@H](CC(C)C)NC(=O)[C@H](Cc2c[nH]c3ccccc23)NC1=O` (H-HAEGTFTSDVSKYLEDQAAKEFIKWLVDGRG-NH2; lactam 12-16, 24-28) displayed a Ki in experiment [1] of 0.94 nM. The figures for the EC50 in experiment [2] and in experiment [3] were 6.7 nM and 0.013 nM, respectively.

In experiment [1], `CC[C@H](C)[C@H](NC(=O)[C@H](Cc1ccccc1)NC(=O)[C@H](CCC(=O)O)NC(=O)[C@H](CCCCN)NC(=O)[C@H](C)NC(=O)[C@H](C)NC(=O)[C@H](CCC(N)=O)NC(=O)[C@@H]1CCCN1C(=O)[C@H](CCC(=O)O)NC(=O)[C@H](CC(C)C)NC(=O)[C@H](Cc1ccc(O)cc1)NC(=O)[C@H](CO)NC(=O)[C@H](CO)NC(=O)[C@@H](NC(=O)[C@H](CC(=O)O)NC(=O)[C@H](CO)NC(=O)[C@@H](NC(=O)[C@H](Cc1ccccc1)NC(=O)[C@@H](NC(=O)CNC(=O)[C@H](CCC(=O)O)NC(=O)[C@H](C)NC(=O)[C@@H](N)Cc1cnc[nH]1)[C@@H](C)O)[C@@H](C)O)C(C)C)C(=O)N[C@H]1CCCCNC(=O)C[C@@H](C(=O)NCC(=O)N[C@@H](CCCNC(=N)N)C(=O)NCC(N)=O)NC(=O)[C@H](C(C)C)NC(=O)[C@H](CC(C)C)NC(=O)[C@H](Cc2c[nH]c3ccccc23)NC1=O` (H-HAEGTFTSDVSSYLEPQAAKEFIKWLVDGRG-NH2; lactam 24-28) gave a Ki of 18 nM. Moreover, the figures for the concentration for a half-maximal effect (EC50) in experiment [2] and in experiment [3] were 33 nM and 0.35 nM, respectively.

In turn, `CC[C@H](C)[C@H](NC(=O)[C@H](Cc1ccccc1)NC(=O)[C@H](CCC(=O)O)NC(=O)[C@H](CCCCN)NC(=O)[C@H](C)NC(=O)[C@H](C)NC(=O)[C@H](CCC(N)=O)NC(=O)CNC(=O)[C@H](CCC(=O)O)NC(=O)[C@H](CC(C)C)NC(=O)[C@H](Cc1ccc(O)cc1)NC(=O)[C@H](CO)NC(=O)[C@H](CO)NC(=O)[C@H](Cc1ccc(O)cc1)NC(=O)[C@H](CC(=O)O)NC(=O)[C@H](CO)NC(=O)[C@@H](NC(=O)[C@H](Cc1ccccc1)NC(=O)[C@@H](NC(=O)CNC(=O)[C@H](CCC(=O)O)NC(=O)[C@H](C)NC(=O)[C@@H](N)Cc1cnc[nH]1)[C@@H](C)O)[C@@H](C)O)C(=O)N[C@H]1CCCCNC(=O)C[C@@H](C(=O)NCC(=O)N[C@@H](CCCNC(=N)N)C(=O)NCC(N)=O)NC(=O)[C@H](C(C)C)NC(=O)[C@H](CC(C)C)NC(=O)[C@H](Cc2c[nH]c3ccccc23)NC1=O` (H-HAEGTFTSDYSSYLEGQAAKEFIKWLVDGRG-NH2; lactam 24-28) registered an inhibitory constant (Ki) in experiment [1] of 0.49 nM. Moreover, the concentration giving a half-maximal response (EC50) in experiment [2] amounted to 3.4 nM; in experiment [3], 0.023 nM.

Compound `CC[C@H](C)[C@H](NC(=O)[C@H](Cc1ccccc1)NC(=O)[C@H](CCC(=O)O)NC(=O)[C@H](CCCCN)NC(=O)[C@H](C)NC(=O)[C@H](C)NC(=O)[C@H](CCC(N)=O)NC(=O)[C@H](C)NC(=O)[C@H](CCC(=O)O)NC(=O)[C@H](CC(C)C)NC(=O)[C@H](Cc1ccc(O)cc1)NC(=O)[C@H](CO)NC(=O)[C@H](CO)NC(=O)[C@@H](NC(=O)[C@H](CC(=O)O)NC(=O)[C@H](CO)NC(=O)[C@@H](NC(=O)[C@H](Cc1ccccc1)NC(=O)[C@@H](NC(=O)CNC(=O)[C@H](CCC(=O)O)NC(=O)[C@H](C)NC(=O)[C@@H](N)Cc1cnc[nH]1)[C@@H](C)O)[C@@H](C)O)C(C)C)C(=O)N[C@H]1CCCCNC(=O)C[C@@H](C(=O)NCC(=O)N[C@@H](CCCNC(=N)N)C(=O)NCC(N)=O)NC(=O)[C@H](C(C)C)NC(=O)[C@H](CC(C)C)NC(=O)[C@H](Cc2c[nH]c3ccccc23)NC1=O` (H-HAEGTFTSDVSSYLEAQAAKEFIKWLVDGRG-NH2; lactam 24-28) yielded a Ki in experiment [1] of 1.7 nM. Also, the 50% effective concentration (EC50) in experiment [2] was 11 nM; in experiment [3], 0.02 nM.

Turning to `CC[C@H](C)[C@H](NC(=O)[C@H](Cc1ccccc1)NC(=O)[C@H](CCC(=O)O)NC(=O)[C@H](CCCCN)NC(=O)[C@H](C)NC(=O)[C@H](C)NC(=O)[C@H](CCC(N)=O)NC(=O)CNC(=O)[C@H](CCC(=O)O)NC(=O)[C@H](CC(C)C)NC(=O)[C@H](Cc1ccc(O)cc1)NC(=O)[C@H](CO)NC(=O)[C@H](CO)NC(=O)[C@@H](NC(=O)[C@H](CC(=O)O)NC(=O)[C@H](CO)NC(=O)[C@@H](NC(=O)[C@H](Cc1ccccc1)NC(=O)[C@@H](NC(=O)CNC(=O)[C@@H]1CSCC(=O)N[C@@H](Cc2cnc[nH]2)C(=O)N[C@@H](C)C(=O)N1)[C@@H](C)O)[C@@H](C)O)C(C)C)C(=O)N[C@@H](C)C(=O)N[C@@H](Cc1c[nH]c2ccccc12)C(=O)N[C@@H](CC(C)C)C(=O)N[C@H](C(=O)N[C@@H](CCCCN)C(=O)NCC(=O)N[C@@H](CCCNC(=N)N)C(=O)NCC(N)=O)C(C)C`, the EC50 in experiment [2] was over 10000 nM; in experiment [3], 300 nM.

`CC[C@H](C)[C@H](NC(=O)[C@H](Cc1ccccc1)NC(=O)[C@H](CCC(=O)O)NC(=O)[C@H](CCCCN)NC(=O)[C@H](C)NC(=O)[C@H](C)NC(=O)[C@H](CCC(N)=O)NC(=O)[C@@H](NC(=O)[C@H](CCC(=O)O)NC(=O)[C@H](CC(C)C)NC(=O)[C@H](Cc1ccc(O)cc1)NC(=O)[C@H](CO)NC(=O)[C@H](CO)NC(=O)[C@@H](NC(=O)[C@H](CC(=O)O)NC(=O)[C@H](CO)NC(=O)[C@@H](NC(=O)[C@H](Cc1ccccc1)NC(=O)[C@@H](NC(=O)CNC(=O)[C@H](CCC(=O)O)NC(=O)[C@H](C)NC(=O)[C@@H](N)Cc1cnc[nH]1)[C@@H](C)O)[C@@H](C)O)C(C)C)C(C)C)C(=O)N[C@H]1CCCCNC(=O)C[C@@H](C(=O)NCC(=O)N[C@@H](CCCNC(=N)N)C(=O)NCC(N)=O)NC(=O)[C@H](C(C)C)NC(=O)[C@H](CC(C)C)NC(=O)[C@H](Cc2c[nH]c3ccccc23)NC1=O` (H-HAEGTFTSDVSSYLEVQAAKEFIKWLVDGRG-NH2; lactam 24-28): in experiment [1], affinity was put at a Ki of 1.5 nM. Besides, the EC50 in experiment [2] is 9 nM; in experiment [3] it was 0.1 nM.

With `CC[C@H](C)[C@H](NC(=O)[C@H](Cc1ccccc1)NC(=O)[C@H](CCC(=O)O)NC(=O)[C@H](CCCCN)NC(=O)[C@H](C)NC(=O)[C@H](C)NC(=O)[C@H](CCC(N)=O)NC(=O)[C@@H]1CCC(=O)NCCCC[C@H](NC(=O)[C@H](CO)NC(=O)[C@@H](NC(=O)[C@H](CC(=O)O)NC(=O)[C@H](CO)NC(=O)[C@@H](NC(=O)[C@H](Cc2ccccc2)NC(=O)[C@@H](NC(=O)CNC(=O)[C@H](CCC(=O)O)NC(=O)[C@H](C)NC(=O)[C@@H](N)Cc2cnc[nH]2)[C@@H](C)O)[C@@H](C)O)C(C)C)C(=O)N[C@@H](Cc2ccc(O)cc2)C(=O)N[C@@H](CC(C)C)C(=O)N[C@@H](CCC(=O)O)C(=O)N1)C(=O)N[C@H]1CCCCNC(=O)C[C@@H](C(=O)NCC(=O)N[C@@H](CCCNC(=N)N)C(=O)NCC(N)=O)NC(=O)[C@H](C(C)C)NC(=O)[C@H](CC(C)C)NC(=O)[C@H](Cc2c[nH]c3ccccc23)NC1=O` (H-HAEGTFTSDVSKYLEEQAAKEFIKWLVDGRG-NH2; lactam 12-16, 24-28), the EC50 in experiment [3] is 0.05 nM.

Usually Ki stands for a measure of affinity in units of concentration, obtained from inhibition or displacement. A high value points to lower affinity. As a reminder, the EC50 is the concentration needed to bring the measured effect to its halfway point.

For the origin of these results see ChEMBL document CHEMBL3994575, “Helixconstraints and amino acid substitution in GLP-1 increase cAMP and insulin secretion but not beta-arrestin 2 signaling” (Eur J Med Chem, 2017).
